The test system of experiment [1] is extracellular HBeAg level (surrogate marker for cccDNA) in HepDES19 cells. The experiment can be described thus: HepDES19 primary screen assay. The experiment is classed as cell-based, HBV. The note with it: Hepatitis B virus, 120 h, 5 days compound incubation, HBeAg ELISA. From the text:
The assay was employed to primarily screen for novel cccDNA inhibitors. HepDES19 is an engineered cell line which contains a 1.1 unit length HBV genome, and pgRNA transcription from the transgene is controlled by Tetracycline (Tet). In the absence of Tet, pgRNA transcription will be induced, but HBV e antigen (HBeAg) could not be produced from this pgRNA due to the fact that the very short leader sequence before the HBeAg start codondisrupted the start codon. Only after cccDNA is formed, the missing leader sequence and start codon mutation would be restored from the 3′-terminal redundancy of pgRNA, and then HBeAg could be synthesized. Therefore, HBeAg could be used as a surrogate marker for cccDNA (Zhou, T. et al., Antiviral Res(2006), 72(2), 116-124; Guo, H. et al., J. Virol (2007), 81(22), 12472-12484).
HepDES19 cells were seeded at 2×10^6 cells per T150 flask and cultured with the culture medium (Dulbecco's Modified Eagle Medium: Nutrient Mixture F-12 (DMEM:F12, Gibco Cat. 11320-82), 10% Fetal Bovine Serum (FBS, Clontech Cat. 631101), 0.1 mM Non-Essential Amino Acids Solution (NEAA, Gibco Cat. 11140-050), 50 μg/mL Penicillin-Streptomycin (PS, Invitrogen Cat. 15140-163), 500 μg/mL Geneticin (G418, Invitrogen Cat. 10131-027) containing 3 μg/mL Tet (Sigma, Cat. 87128) for 5 days. Cells were then seeded at 4×10^6 cells per T150 in the same culture medium as described above in the absence of Tet for 8 days. Cells were then harvested and frozen at density of 2×10^6 cells per mL. For compound testing, the frozen cells were thawed and seeded into 96-well plates at a density of 6×10^4 cells per well. At 24 hrs after seeding, half log serial dilutions of compounds made with Dimethyl sulfoxide (DMSO, Sigma, Cat. D2650) were further diluted with the same culture medium as described above before they were added to the cells to reach desired final compound concentrations and 1% DMSO concentration. Plates were then incubated at 37° C. for another 5 days before measurement of HBeAg level and cell viability. Extracellular HBeAg level were measured with enzyme-linked immunosorbent assay (ELISA) kit (Shanghai Kehua Diagnostic Medical Products Co., Ltd). Cell viability was assessed using Cell Counting Kit-8 (Donjindo, Cat. CK04-20). IC50 values were derived from the dose-response curve using 4 parameter logistic curve fit method.
The compounds of the present invention were tested for their capacity to inhibit extracellular HBeAg level as described herein.

Experiment [2] concerns extracellular HBsAg level in HBV-infected PHH. The experiment can be described thus: Cryopreserved primary human hepatocytes (PHH) assay, HBsAg. The experiment is classed as cell-based. The note with it: Hepatitis B virus, Hepatocyte, 216 h, read-out: HBsAg IC50. On the procedure:
Cryopreserved PHH (BioreclamationIVT, Lot YJM) was thawed at 37° C. and gently transferred into pre-warmed InVitroGRO HT medium (BioreclamationIVT, Cat. S03317). The mixture was centrifuged at 70 relative centrifugal force (RCF) for 3 minutes at RT, and the supernatant was discarded. Pre-warmed InVitroGRO CP medium (BioreclamationIVT, Cat # S03316) was added to the cell pellet to gently re-suspend cells. The cells were seeded at the density of 5.8×10^4 cells per well to collagen I coated 96-well plate (Gibco, Cat. A1142803) with the InVitroGRO CP medium. All plates were incubated at 37° C. with 5% CO2 and 85% humidity.
At 20 hours after plating, the medium was changed to PHH culture medium (Dulbecco's Modified Eagle Medium (DMEM)/F12 (1:1) (Gibco, Cat. 11320-033), 10% fetal bovine serum (Gibco Cat. 10099141), 100 U/mL penicillin, 100 μg/mL streptomycin (Gibco, Cat. 151401-122), 5 ng/mL human epidermal growth factor (Invitrogen Cat. PHG0311L), 20 ng/mL dexamethasone (Sigma, Cat. D4902) and 250 ng/mL human recombinant insulin (Gibco, Cat. 12585-014)). And the cells were incubated at 37° C. with 5% CO2 and 85% humidity for 4 hours. The medium was then changed to pre-warmed PHH culture medium containing 4% polyethylene glycol (PEG) MW8000 (Sigma, Cat. P1458-50ML) and 1% DMSO (Sigma, Cat. D2650). 5.8×10^6 genomic equivalents of HBV were added into the medium.
At 24 hours post-infection, the cells were gently washed with PBS and refreshed with PHH culture medium supplemented with 1% DMSO, and 0.25 mg/mL Matrix gel (Corning, Cat. 356237) at 200 μL per well. All plates were immediately placed in at 37° C. CO2 incubator.
24 hours later, serial dilutions of compounds made with DMSO were further diluted with the same culture medium (PHH culture medium supplemented with 1% DMSO and 0.25 mg/mL Matrix gel as described above) before they were added to the cells to reach desired final compound concentrations and 1% DMSO concentration. The medium containing the compounds were refreshed every three days.
At 9 days post-compound treatment, extracellular HBsAg level were measured with Chemiluminescence Immuno Assay (CLIA) kit (Autobio, HBsAg Quantitative CLIA). Extracellular HBV DNA was extracted by MagNA Pure 96 system (Roche) and then determined by quantitative PCR with the following primers and probe: HBV-Forward Primer (SEQ ID NO:2): […] (5′ to 3′); HBV-Reverse Primer (SEQ ID NO:3): […](5′ to 3′); HBV-Probe: 5′+tetramethylrhodamine+SEQ ID NO:4+black hole quencher 2-3′, wherein SEQ ID NO:4 is […].
HBsAg IC50 and HBV DNA IC50 values were derived from the dose-response curve using 4 parameter logistic curve fit method.

The subject of experiment [3] is cccDNA level in HepDES19 cells. In words: cccDNA Southern Blot assay. Conditions: 5 days' compound treatment, Hirt DNA, serial dilutions. The experiment is classed as cell-based, HBV. The procedure:
HepDES19 cells were seeded at 4×10^6 cells per T150 in the culture medium (Dulbecco's Modified Eagle Medium: Nutrient Mixture F-12 (DMEM:F12, Gibco Cat. 11320-82), 10% Fetal Bovine Serum (FBS, Clontech Cat. 631101), 0.1 mM Non-Essential Amino Acids Solution (NEAA, Gibco Cat. 11140-050), […] Penicillin-Streptomycin (PS, Invitrogen Cat. 15140-163), 500 μg/mL Geneticin (G418, Invitrogen Cat. 10131-027) in the absence of Tet for 8 days. These cells were seeded at the density of 1×10^6 cells per well in 6-well plate. At 24 hrs after seeding, serial dilutions of compounds made with DMSO (Sigma, Cat. D2650) were further diluted with the same culture medium as described above before they were added to the cells to reach desired final compound concentrations and 1% DMSO concentration. After 5 days' compound treatment, the cells growing in one well from 6-well plate were re-suspended with 500 μL re-suspension buffer (50 mM tris[hydroxymethyl]aminomethane pH 7.5), 10 mM ethylenediaminetetraacetic acid (EDTA), 50 μg/mL RNase A (Qiagen, Cat. 158922). 500 μL of 1.2% sodium dodecyl sulfate (SDS) was then added into the re-suspended cells to lyse the cells. After 15 minutes' incubation, 700 μL precipitation buffer (3M cesium chloride, 1M potassium acetate, 0.67M acetic acid) was added and the lysate was incubated at 4° C. for 2 h. The lysate was centrifuged at 15000 revolutions per minute (RPM) at 4° C. for 15 minutes. The supernatant was collected and loaded onto Qiagen miniprep columns (QIAprep spin Mini prep kit, Cat. No. 27016). After centrifugation for 1 minute at 15000 RPM, the column was washed once with 750 µL wash buffer PE from QIAprep spin Mini prep kit. 80 μL of double distilled water was loaded to the columns to elute Hirt DNA.
Hirt DNA of each sample was loaded into 1.2% lx tris-acetate electrophoresis (TAE) agarose gel and separated at 90 voltages for 3 hours. The gel was then treated in 50 mM NaAc—HAc, pH4.2 for 30 min at room temperature (RT), and then denatured by soaking in denaturation buffer (0.5 M sodium hydroxide, 1.5 M sodium chloride) at RT for 30-45 min. The gel was then treated with neutralization buffer (1M tris[hydroxymethyl]aminomethane pH7.4 and 1.5M NaCl) at RT for 30 to 45 min.
The gel was transferred onto a pre-wet Nylon membrane (GE life science, Hybond N+) by capillary transfer method overnight, followed by UV crosslinking. The membrane was transferred into a hybridization tube, then rinsed with double distilled water at 60° C. for 5 mins. 10 mL of hybridization buffer (Lab kits, China) was added, the resulting sample was rotated in hybridization oven at 60° C. for 1 hour. Digoxigenin (DIG)-labelled HBV probe (SEQ ID NO: 1) was denatured at 95° C. for 10 minutes, and then 7 μL of denatured probe was added to the hybridization tube, which was rotated in hybridization oven at 60° C. overnight.
On the second day, the membrane was washed according to the procedure of DIG wash and block buffer set kit (Roche, Cat. 11 585 762 001), and then incubated with 50 mL antibody solution (Antibody anti-Digoxigenin-AP Fab fragment (Roche Cat. 11093274910) diluted in fresh 1× blocking buffer at 1:10,000) for 1 hour. The membrane was washed with 50 mL washing buffer (1× Maleic buffer with 0.3% Tween-20) for 15 minutes twice, and equilibrated with 20 mL detection buffer (0.1M tris[hydroxymethyl]aminomethane pH9.5, 0.1M sodium chloride) for 5 minutes. CDP-Star substrate (Roche, Cat. 12041677001) was added to the membrane for 5 minutes, and then the membrane was scanned by Bio-Rad Visualize Image System (Biorad, ChemiDoc-MP, Serial No. 731BR00916).

What is called IC50 is the concentration that gives 50% inhibition. In the case of `O=C(O)C1CCN(c2cc3oc4c(Cl)cccc4c(=O)c3cn2)C1` (stereo not shown) [Example 41, 1-(6-chloro-10-oxo-chromeno[3,2-c]pyridin-3-yl)pyrrolidine-3-carboxylic Acid], the figures for the 50% inhibitory concentration (IC50) in experiment [1] and in experiment [2] were 4.04 µM and 8.08 µM, respectively.
Regarding `O=C(O)C1CCN(c2ccc3c(=O)c4cccc(Cl)c4sc3c2)C1` (stereo not shown) [Example 6, 1-(5-chloro-9-oxo-thioxanthen-3-yl)pyrrolidine-3-carboxylic acid], the IC50 was 4.94 µM in experiment [1] and 5.06 µM in experiment [2].
`O=C(O)C1CCN(c2cc3oc4c(Cl)cccc4c(=O)c3cc2Cl)C1` (stereo not shown) [Example 43, 1-(2,5-dichloro-9-oxo-xanthen-3-yl)pyrrolidine-3-carboxylic Acid]: the IC50 in experiment [1] amounted to 1.11 µM; in experiment [2], 8.22 µM.
For the compound `N#Cc1ccc(Cl)c2oc3cc(N4CCC(C(=O)O)C4)ccc3c(=O)c12` (stereo not shown) [Example 44, 1-(5-chloro-8-cyano-9-oxo-xanthen-3-yl)pyrrolidine-3-carboxylic Acid], the IC50 in experiment [1] is 1.1 µM; in experiment [2], 12.4 µM.
Regarding `O=C(O)C1CCN(c2ccc3c(=O)c4cccc(Br)c4oc3c2)C1` (stereo not shown) [Example 7, 1-(5-bromo-9-oxo-xanthen-3-yl)pyrrolidine-3-carboxylic acid], half-maximal inhibition in experiment [1] (IC50) required 3.56 µM. Also, the “cccDNA level in HepDES19 cells (Southern Blot)” value in experiment [3] is reported as “dose-dependently reduced cccDNA level”.

The values above are taken from patent US10611748B2, “Xanthone derivatives for the treatment of hepatitis B virus disease” (Hoffmann-La Roche Inc., priority 2017, dated 2020).
